What all share (assay type): biochemical
One assay has as its target PAK1 (Homo sapiens, UniProt Q13153). Briefly: In vitro PAK inhibition assay (SelectScreen, Ser/Thr 19 peptide). Here is the method:
(§1) Compounds are screened in 1% DMSO (final) in the well. For 10 point titrations, 3-fold serial dilutions are conducted.
(§2) All Peptide/Kinase Mixtures are diluted to a 2× working concentration in the appropriate Kinase Buffer
The 2×PAK1/Ser/Thr 19 mixture is prepared in 50 mM HEPES pH 7.5, 0.01% BRIJ-35, 10 mM MgCl2, 1 mM EGTA.
(§3) This control yields 100% cleaved peptide in the Development Reaction.
(§4) The 100% Phosphorylation Control, which consists of a synthetically phosphorylated peptide of the same sequence as the peptide substrate, is designed to allow for the calculation of percent phosphorylation.
(§5) This control is designed to produce a 10-50%* phosphorylated peptide in the Kinase Reaction.
(§6) A known inhibitor control standard curve, 10 point titration, is run for each individual kinase on the same plate as the kinase to ensure the kinase is inhibited within an expected IC50 range previously determined.
(§7) Add the following solutions to a well in a 384-well plate: • 2.5 μL of 4× Test Compound OR (100 nL 100× Test Compound plus 2.4 μL kinase buffer) • 5 μL of 2× Peptide/Kinase (PAK) Mixture • 2.5 μL of 4×ATP Solution • 2. Shake the plate for 30-seconds • 3. Incubate the PAK Kinase Reaction at room temperature for 60-minutes • 4. Add 5 μL of Development Reagent Solution to each well • 5. Shake the plate for 30-seconds • 6. Incubate the Development Reaction for 60-minutes • 7. Determine the fluorescence using a fluorescence plate reader • 8. Analyze the fluorescence data
(§8) SelectScreen® Kinase Profiling Service uses XLfit from IDBS.
(§9) The representative IC50 value with a known inhibitor for each kinase was determined at the ATP bin nearest to the ATP Km app.

The target of a further assay is PAK2 (PAK65) (Homo sapiens, UniProt Q13177). The experiment in a line: In vitro PAK inhibition assay (SelectScreen, Ser/Thr 20 peptide). Here is the method: as §1, §2
PAK2 (PAK65), sequence (Q13177 whole entry): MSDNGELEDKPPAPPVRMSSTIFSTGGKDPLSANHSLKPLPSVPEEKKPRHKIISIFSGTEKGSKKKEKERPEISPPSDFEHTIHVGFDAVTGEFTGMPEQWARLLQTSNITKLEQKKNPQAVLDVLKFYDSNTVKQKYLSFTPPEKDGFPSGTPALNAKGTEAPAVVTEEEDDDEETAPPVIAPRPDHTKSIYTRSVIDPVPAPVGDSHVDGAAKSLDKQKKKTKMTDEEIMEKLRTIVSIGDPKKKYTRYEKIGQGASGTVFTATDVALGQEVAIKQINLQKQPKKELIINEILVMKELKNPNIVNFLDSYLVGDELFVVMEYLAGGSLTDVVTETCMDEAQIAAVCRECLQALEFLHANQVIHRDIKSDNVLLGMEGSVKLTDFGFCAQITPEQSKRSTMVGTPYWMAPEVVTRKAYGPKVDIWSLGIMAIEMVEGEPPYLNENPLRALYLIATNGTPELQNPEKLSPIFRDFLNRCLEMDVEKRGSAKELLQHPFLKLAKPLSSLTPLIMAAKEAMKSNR
The 2×PAK2 (PAK65)/Ser/Thr 20 mixture is prepared in 50 mM HEPES pH 7.5, 0.01% BRIJ-35, 10 mM MgCl2, 1 mM EGTA. The final 10 μL Kinase Reaction consists of 0.29-6 ng PAK2 (PAK65) and 2 μM Ser/Thr 20 in 50 mM HEPES pH 7.5, 0.01% BRIJ-35, 10 mM MgCl2, 1 mM EGTA.
as §3, §4, §5, §6, §7, §8, §9

A further assay addresses PAK3 (Homo sapiens, UniProt O75914). The assay is described as above. Here is the method: as §1, §2
The 2×PAK3/Ser/Thr 20 mixture is prepared in 50 mM HEPES pH 7.5, 0.01% BRIJ-35, 10 mM MgCl2, 1 mM EGTA.
as §3, §4, §5, §6, §7, §8, §9

In the next assay the target is PAK4 (Homo sapiens, UniProt O96013). The assay is described as above. Here is the method:
as §1, §2
The 2×PAK4/Ser/Thr 20 mixture is prepared in 50 mM HEPES pH 7.5, 0.01% BRIJ-35, 10 mM MgCl2, 1 mM EGTA. The final 10 μL Kinase Reaction consists of 0.1-0.75 ng PAK4 and 2 μM Ser/Thr 20 in 50 mM HEPES pH 7.5, 0.01% BRIJ-35, 10 mM MgCl2, 1 mM EGTA. After the 1 hour Kinase Reaction incubation, 5 μL of a 1:256 dilution of Development Reagent A is added.
as §3, §4
The minimum Emission Ratio in a screen is established by the 0% Inhibition Control, which contains active kinase. This control is designed to produce a 10-50%* phosphorylated peptide in the Kinase Reaction.
as §6
as §7, with “Bar-coded Corning, low volume NBS, black 384-well plate (Corning Cat. #3676) • 1. Add the” for “Add the”
SelectScreen® Kinase Profiling Service uses XLfit from IDBS. The dose response curve is curve fit to model number 205 (sigmoidal dose-response model).
The table below provides specifications and data around each kinase. The representative IC50 value with a known inhibitor for each kinase was determined at the ATP bin nearest to the ATP Km app.

In patent US20140163026A1, “8-ETHYL-6-(ARYL)PYRIDO[2,3-D]PYRIMIDIN-7(8H)-ONES FOR THE TREATMENT OF NERVOUS SYSTEM DISORDERS AND CANCER” (Afraxis Holdings, Inc., priority 2011, published 2014) one finds IC50 data, which are given here for 28 molecules.

pIC50: −log10 of the molar value.

For orientation: pIC50 means −log10 of the IC50, conventionally taken in molar units. A low value points to a large IC50.

PAK4, sequence (O96013 whole entry): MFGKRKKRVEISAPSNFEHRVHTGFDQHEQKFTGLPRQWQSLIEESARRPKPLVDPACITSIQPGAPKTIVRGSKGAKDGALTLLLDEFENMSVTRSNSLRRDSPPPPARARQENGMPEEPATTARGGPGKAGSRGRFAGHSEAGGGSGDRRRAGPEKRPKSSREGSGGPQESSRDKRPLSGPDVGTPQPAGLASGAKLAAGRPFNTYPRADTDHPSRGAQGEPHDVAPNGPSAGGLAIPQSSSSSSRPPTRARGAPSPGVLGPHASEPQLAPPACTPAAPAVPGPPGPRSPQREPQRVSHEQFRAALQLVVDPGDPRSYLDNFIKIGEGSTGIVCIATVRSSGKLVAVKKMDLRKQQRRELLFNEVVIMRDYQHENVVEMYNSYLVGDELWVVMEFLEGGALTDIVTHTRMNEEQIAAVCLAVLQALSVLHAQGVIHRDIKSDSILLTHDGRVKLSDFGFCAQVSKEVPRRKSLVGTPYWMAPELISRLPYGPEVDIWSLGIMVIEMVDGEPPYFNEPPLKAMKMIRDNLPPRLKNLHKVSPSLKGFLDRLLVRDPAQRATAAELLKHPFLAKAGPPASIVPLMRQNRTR
PAK3, sequence (O75914 whole entry): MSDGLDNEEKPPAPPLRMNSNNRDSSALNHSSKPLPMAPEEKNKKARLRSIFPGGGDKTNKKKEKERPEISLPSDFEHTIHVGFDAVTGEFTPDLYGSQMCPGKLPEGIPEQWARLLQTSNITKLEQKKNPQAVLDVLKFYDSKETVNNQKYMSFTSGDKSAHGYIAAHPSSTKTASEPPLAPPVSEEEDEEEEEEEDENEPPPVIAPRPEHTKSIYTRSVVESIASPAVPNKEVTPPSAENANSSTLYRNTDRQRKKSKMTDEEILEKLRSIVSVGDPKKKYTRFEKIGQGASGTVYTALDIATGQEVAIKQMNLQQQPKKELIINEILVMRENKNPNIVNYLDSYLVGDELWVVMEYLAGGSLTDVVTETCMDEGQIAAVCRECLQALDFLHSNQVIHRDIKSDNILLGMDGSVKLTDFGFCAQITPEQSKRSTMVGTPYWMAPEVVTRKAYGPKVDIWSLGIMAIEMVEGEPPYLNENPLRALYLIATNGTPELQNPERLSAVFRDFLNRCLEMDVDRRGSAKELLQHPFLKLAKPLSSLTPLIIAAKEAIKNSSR
PAK1, sequence (Q13153 whole entry): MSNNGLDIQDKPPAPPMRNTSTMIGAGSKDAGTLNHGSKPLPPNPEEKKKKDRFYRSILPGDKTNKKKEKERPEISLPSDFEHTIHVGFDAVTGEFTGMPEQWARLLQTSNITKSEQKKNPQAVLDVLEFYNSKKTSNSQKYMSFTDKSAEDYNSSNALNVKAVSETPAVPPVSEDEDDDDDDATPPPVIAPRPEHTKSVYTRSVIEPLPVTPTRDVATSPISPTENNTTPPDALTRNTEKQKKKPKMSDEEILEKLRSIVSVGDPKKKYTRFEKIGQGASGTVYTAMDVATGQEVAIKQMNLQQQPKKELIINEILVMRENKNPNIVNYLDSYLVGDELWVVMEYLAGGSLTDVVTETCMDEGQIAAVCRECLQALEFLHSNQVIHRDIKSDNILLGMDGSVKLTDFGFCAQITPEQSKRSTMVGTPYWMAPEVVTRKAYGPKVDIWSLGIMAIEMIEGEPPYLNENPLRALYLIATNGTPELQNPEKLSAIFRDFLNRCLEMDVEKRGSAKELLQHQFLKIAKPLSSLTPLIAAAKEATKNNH

As to `CCn1c(=O)c(-c2ccc(-c3cn[nH]c3)cc2)cc2cnc(Nc3ccc(N4CCN(C)CC4)cc3)nc21`, the pIC50 against PAK1 is < 5.30; against PAK2 (PAK65), 5.30 to 6.30; against PAK3, < 5.30; at PAK4, ≤ 5.30.

`CCn1c(=O)c(-c2ccc(-c3ccn[nH]3)cc2)cc2cnc(Nc3ccc(N4CCN(C)CC4)cc3)nc21`: the pIC50 on PAK1 is 5.30 to 6.30; against PAK2 (PAK65) it was 6.30 to 7.30; against PAK3, 5.30 to 6.30; against PAK4, ≤ 5.30.

On to `CCn1c(=O)c(-c2nc(C)sc2C)cc2cnc(Nc3ccc(N4CCN(C)CC4)cc3)nc21`, for which the pIC50 at PAK1 is 5.30 to 6.30; against PAK2 (PAK65), 5.30 to 6.30; against PAK3, < 5.30; against PAK4, ≤ 5.30.

Take `CCn1c(=O)c(-c2ccc(-c3cncs3)cc2Cl)cc2cnc(Nc3ccc(N4CCN(C(C)C)CC4)c(F)c3)nc21`: the pIC50 on PAK1 is > 7.30; at PAK2 (PAK65), > 7.30; on PAK3 it was > 7.30; against PAK4, ≤ 5.30.

Turning to `CCn1c(=O)c(-c2ccc(-c3noc(C)n3)cc2Cl)cc2cnc(Nc3ccc(N4CCNCC4)cc3)nc21`, the negative-log IC50 (pIC50) at PAK1 is > 7.30; on PAK2 (PAK65) it was > 7.30; on PAK3, > 7.30; against PAK4, 6.30 to 7.30.

In the case of `CCn1c(=O)c(-c2ccc(-c3scnc3C)cc2Cl)cc2cnc(Nc3ccc(N4CCN(C)CC4)cc3)nc21`, the pIC50 is > 7.30 against PAK1, > 7.30 against PAK2 (PAK65), > 7.30 on PAK3 and ≤ 5.30 against PAK4.

Take `CCN1CCN(c2ccc(Nc3ncc4cc(-c5ccc(-c6cncs6)cc5Cl)c(=O)n(CC)c4n3)cc2F)CC1`: the pIC50 was > 7.30 at PAK1, > 7.30 on PAK2 (PAK65), 6.30 to 7.30 against PAK3 and ≤ 5.30 against PAK4.

As for `CCn1c(=O)c(-c2ccc(-c3scnc3C)cc2Cl)cc2cnc(Nc3ccc(N4CCN(C(C)C)CC4)cc3)nc21`, the pIC50 against PAK1 was > 7.30; on PAK2 (PAK65), > 7.30; against PAK3, 6.30 to 7.30; on PAK4, ≤ 5.30.

As for `CCn1c(=O)c(-c2ccc(-c3ncccn3)cc2Cl)cc2cnc(Nc3ccc(N4CCN(C)CC4)cc3)nc21`, the pIC50 against PAK1 is > 7.30; against PAK2 (PAK65), > 7.30; against PAK3, > 7.30; on PAK4 it was 5.30 to 6.30.

Take `CCn1c(=O)c(-c2ccc(-c3cnc(C)s3)cc2Cl)cc2cnc(Nc3ccc(N4CCN(C)CC4)cc3)nc21`: the pIC50 against PAK1 is > 7.30; at PAK2 (PAK65) it was > 7.30; on PAK3 it was > 7.30; on PAK4 it was ≤ 5.30.

As for `CCn1c(=O)c(-c2ccc(-c3noc(C(F)(F)F)n3)cc2Cl)cc2cnc(Nc3ccc(N4CCN(C(C)C)CC4)cc3)nc21`, the pIC50 on PAK1 is > 7.30; at PAK2 (PAK65) it was > 7.30; on PAK3, > 7.30; against PAK4, ≤ 5.30.

Regarding `CCn1c(=O)c(-c2ccc(-c3noc(C)n3)cc2Cl)cc2cnc(Nc3ccc(N4CCN(C(C)C)CC4)cc3)nc21`, the negative logarithm of the IC50 (pIC50) on PAK1 is > 7.30; at PAK2 (PAK65) it was > 7.30; against PAK3 it was > 7.30; against PAK4, 5.30 to 6.30.

Take `CCn1c(=O)c(-c2ccc(-c3noc(C)n3)cc2Cl)cc2cnc(Nc3ccc(N4CCN(C)CC4)c(F)c3)nc21`: the pIC50 against PAK1 was > 7.30; on PAK2 (PAK65) it was > 7.30; at PAK3 it was > 7.30; on PAK4 it was ≤ 5.30.

In the case of `CCn1c(=O)c(-c2ccc(-c3scnc3C)cc2Cl)cc2cnc(Nc3ccc(N4CCNCC4)cc3)nc21`, the pIC50 against PAK1 is > 7.30; against PAK2 (PAK65), > 7.30; on PAK3, > 7.30; against PAK4, 5.30 to 6.30.

As to `CCN1CCN(c2ccc(Nc3ncc4cc(-c5ccc(-c6scnc6C)cc5Cl)c(=O)n(CC)c4n3)cc2)CC1`, the pIC50 was > 7.30 on PAK1, > 7.30 against PAK2 (PAK65), 6.30 to 7.30 against PAK3 and ≤ 5.30 against PAK4.

For `CCn1c(=O)c(-c2ccc(-c3noc(C)n3)cc2)cc2cnc(Nc3ccc(N4CCN(C)CC4)cc3)nc21`, the pIC50 on PAK1 was > 7.30; against PAK2 (PAK65), 6.30 to 7.30; against PAK3 it was 6.30 to 7.30; against PAK4, ≤ 5.30.

For `CCn1c(=O)c(-c2ccc(-c3cccnc3)cc2Cl)cc2cnc(Nc3ccc(C4CCNCC4)c(F)c3)nc21`, the pIC50 at PAK1 is > 7.30; on PAK2 (PAK65), > 7.30; against PAK3, > 7.30; on PAK4, 5.30 to 6.30.

Take `CCn1c(=O)c(-c2ccc(-c3ccc(C)nc3)cc2Cl)cc2cnc(Nc3ccc(N4CCN(C)CC4)cc3)nc21`: the pIC50 against PAK1 is > 7.30; against PAK2 (PAK65), > 7.30; against PAK3, 6.30 to 7.30; against PAK4 it was 5.30 to 6.30.

As to `CCn1c(=O)c(-c2ccc(-c3cccnc3C)cc2Cl)cc2cnc(Nc3ccc(N4CCN(C)CC4)cc3)nc21`, the pIC50 against PAK1 was > 7.30; against PAK2 (PAK65), > 7.30; against PAK3, > 7.30; on PAK4, ≤ 5.30.

On to `CCn1c(=O)c(-c2ccc(-c3ccc(C(=O)NC)nc3)cc2Cl)cc2cnc(Nc3ccc(N4CCN(C)CC4)cc3)nc21`, for which the pIC50 is < 5.30 at PAK1, 6.30 to 7.30 on PAK2 (PAK65), < 5.30 against PAK3 and ≤ 5.30 on PAK4.

Consider `CCn1c(=O)c(-c2ccc(-c3ccnc(C)c3)cc2Cl)cc2cnc(Nc3ccc(N4CCN(C)CC4)cc3)nc21`, for which the pIC50 against PAK1 is > 7.30; at PAK2 (PAK65) it was > 7.30; on PAK3, > 7.30; against PAK4, ≤ 5.30.

Consider `CCn1c(=O)c(-c2ccc(-c3cccnc3)cc2Cl)cc2cnc(Nc3ccc(C4CCNC4)cc3)nc21` (stereo not shown), for which the pIC50 against PAK1 is > 7.30; at PAK2 (PAK65), > 7.30; on PAK3, > 7.30; at PAK4 it was 5.30 to 6.30.

Take `CCn1c(=O)c(-c2ccc(-c3noc(C)n3)cc2Cl)cc2cnc(Nc3ccc(C4CCNC4)cc3)nc21` (stereo not shown): the pIC50 against PAK1 is > 7.30; against PAK2 (PAK65), > 7.30; at PAK3 it was > 7.30; against PAK4, 5.30 to 6.30.

In the case of `CCn1c(=O)c(-c2ccc(-c3noc(C)n3)cc2Cl)cc2cnc(Nc3ccc(C4CCNC4)c(F)c3)nc21` (stereo not shown), the pIC50 against PAK1 was > 7.30; on PAK2 (PAK65), > 7.30; at PAK3, > 7.30; at PAK4, 5.30 to 6.30.

With `CCn1c(=O)c(-c2ccc(-c3noc(C)n3)cc2Cl)cc2cnc(Nc3ccc(N4CCNCC4)c(F)c3)nc21`, the pIC50 was > 7.30 against PAK1, > 7.30 on PAK2 (PAK65), > 7.30 against PAK3 and 6.30 to 7.30 at PAK4.

As to `CCn1c(=O)c(-c2ccc(-c3ccnc(C(=O)NC)c3)cc2Cl)cc2cnc(Nc3ccc(N4CCN(C)CC4)cc3)nc21`, the pIC50 against PAK1 is > 7.30; against PAK2 (PAK65), > 7.30; against PAK3, 6.30 to 7.30; at PAK4 it was ≤ 5.30.

Regarding `CCn1c(=O)c(-c2ccc(-c3ccnc(C(=O)NC)c3)cc2Cl)cc2cnc(Nc3ccc(C4CCN(C)CC4)cc3)nc21`, the pIC50 on PAK1 was > 7.30; on PAK2 (PAK65), 6.30 to 7.30; at PAK3 it was 6.30 to 7.30; at PAK4 it was ≤ 5.30.

Take `CCn1c(=O)c(-c2ccc(-c3cccnc3)cc2Cl)cc2cnc(Nc3ccc(C4CCN(C)CC4)cc3)nc21`: the pIC50 on PAK1 is > 7.30; on PAK2 (PAK65), > 7.30; against PAK3 it was > 7.30; against PAK4, 5.30 to 6.30.
